A value given as a limit tells only on which side of the number the result lay.

For the molecule `CCOC(=O)C1=C(C)NC(C)=C(C(=O)OCC)C1c1ccc(Cl)cc1`, the melting point (commonly the temperature of the solid-liquid transition) lay within 151 to 152 °C.

Regarding `CCOC(=O)Cc1ccc2oc3ccccc3c(=O)c2c1`, the melting point is 97 to 98 °C.

For `COc1ccc(C(=O)N2CCCCc3cc(C4=NNC(=O)SC4C)ccc32)cc1OC` (stereo not drawn), the melting point is 207 °C.

Molecule `CCOC(=O)CCCOc1ccc(-c2cc(C#N)c(=O)[nH]c2C)cc1` gave a melting point of 222 to 224 °C.

On to `CC(C)n1nc(-c2c(NCc3cccnc3)nc(N)nc2-c2ccccc2)ccc1=O`, for which the melting point was in the range of 215 to 216 °C.

For `Cc1nc2c(cc1Br)c(=O)c(C(=O)NCc1ccc(Cl)cc1)cn2C`, the melting point was 266 to 268 °C.

`CC(C)CC(CS)C(=O)N[C@H]1Cc2cn(c3ccccc23)CCCCCCNC1=O` (stereo partly drawn): the melting point was found to be 224 °C.

The molecule `Cc1cn([C@H]2C=C[C@@H](O)C2)c(=O)nc1-n1cncn1` (racemic) returned a melting point of 143 to 146 °C.

`COc1ccc(S(=O)(=O)C2(CCCCC#Cc3ccc(Cl)cc3)SC(=O)NC2=O)cc1` (stereo not drawn) showed a melting point of 145 to 148 °C.

In turn, `Cc1noc(C)c1C(=O)Nc1ccc(-n2nc(C(F)(F)F)cc2C(F)(F)F)c(Cl)c1` displayed a melting point of 64 to 65 °C.

Regarding `CC(=O)N1OC(C)C(=S)NC1c1ccccc1C` (stereo not drawn), the melting point is 167 to 170 °C.

Consider `Cc1nc(CO)c(OCc2ccccc2)c(=O)n1C`, for which the melting point was 93 to 95 °C.

Consider `CCOc1cc2cc(C(=O)O)cc(-c3ccnc(Cl)c3)c2cc1OCC`, for which the melting point is over 250 °C.

`COc1ccc(S(=O)(=O)N(C)c2ccc(Cl)cc2C(O)c2ccccc2Cl)cc1OC` (stereo not drawn) displayed a melting point of 173 °C.

`CCCCCc1c(C(=O)NN2CC=CCC2)nn(-c2ccc(Cl)cc2Cl)c1-c1ccc(Cl)cc1` displayed a melting point of 150 °C.

With `O=S1(=O)N=CN(C2CCCCC2)c2cc(Cl)ccc21`, the melting point was 189 to 191 °C.

On to `COc1cc(C(=O)O)ccc1Cn1cc(CC(C)C(=O)N(C)C)c2ccc(C(=O)NCC3CCCC3)cc21` (stereo not drawn), for which the melting point was 120 to 122 °C.

In turn, `Cc1ccn2c(=Nc3ccncc3)snc2c1` came in with a melting point of 144 to 145 °C.

Take `O=C(O)c1cc([N+](=O)[O-])cc2ccccc12`: the melting point lay within 255 to 257 °C.

In the case of `O=C(Nc1ccc(C(=O)N2CCc3nc(-c4ccccn4)[nH]c3-c3ccccc32)cc1)c1ccccc1-c1ccccc1`, the melting point lay in the range of 240 to 242 °C.

Take `CC(=Cc1ccc2c(c1)Sc1cc(C=C(C)c3ccccc3)ccc1N2C)c1ccccc1`: the melting point was in the range of 189 to 191 °C.

As to `CC(C)(C)C(=O)Nc1cc(OCc2ccccc2)c(OCc2ccccc2)cc1N`, the melting point came out at 115 °C.

The molecule `COC(=O)c1sc2c(c1N=C1CCCN1C)c1ccccc1c(=O)n2-c1ccccc1C` showed a melting point of 209 to 211 °C.

`CC(C)CCCC(C)C1CCC2C3CC=C4CC(OCCCCCCSC5OCC(O)C(O)C5O)CCC4(C)C3CCC12C` (stereo not drawn) yielded a melting point of 115 °C.

Molecule `Cn1c(/C=C/[N+](=O)[O-])cc2cccc(F)c21` yielded a melting point of 153 to 156 °C.

With `C[C@H](C1CCCCC1)N1C(=O)c2c(F)c(F)c(F)c(F)c2C1=O`, the melting point is 147 to 148 °C.

`Cc1ccc2c(c1)C(C(=O)O)c1ccccc1CO2` (stereo not drawn) yielded a melting point of 183 to 184 °C.

`CSc1ncc2c(n1)C(C)CNN(C)C2=O` (stereo not drawn): the melting point was 153 to 155 °C.

Consider `O=C(O)CCCCCNS(=O)(=O)c1ccccc1`, for which the melting point lay within 113 to 115 °C.

As for `NCc1ccc(CO)cc1`, the melting point was 102 to 123 °C.

`CC1COc2c(F)c(F)c([N+](=O)[O-])c3c(=O)[nH]c(=O)n1c23` (stereo not drawn) showed a melting point of 286 to 288 °C.

`CCCCCCCNC(=O)Nc1ccccc1C(=O)NCCCC1CCN(C(c2ccccc2)c2ccccc2)C1` (stereo not drawn) registered a melting point of 109 to 111 °C.

Turning to `COc1ccccc1N1CCN([C@@H]2Cc3c(cccc3OC)C[C@H]2O)CC1` (relative stereo), the melting point fell in the range of 138 to 141 °C.

Regarding `CC(=O)Nc1ccc(C#Cc2cnn3c(C(F)(F)F)cc(-c4ccc(C(F)(F)F)cc4)nc23)cn1`, the melting point is 266 °C.

`O=C(NCCN1CCC(Oc2ccc(F)cc2Cl)CC1)c1ccc(-n2cccn2)nc1` registered a melting point of 109 to 110 °C.

For `CC(=O)NC[C@H]1CN(c2ccc(N3CCC(F)(F)CC3)c(F)c2)C(=O)O1`, the melting point lay in the range of 192 to 194 °C.

Molecule `N#C/C=C1\CCc2ncc3c(c21)CCO3` came in with a melting point of 231 to 233 °C.

The molecule `CC(O)COc1cccc(N)c1C(N)=O` (stereo not drawn) had a melting point of 115 to 118 °C.

Take `CC(C)(C)OC(=O)Nc1ccc(-c2ccccc2F)cc1NC(=O)CC(=O)c1sccc1C#N`: the melting point lay in the range of 63 to 66 °C.

For `O=C(c1ccccc1)c1[nH]c2cc(Cl)ccc2c1CC(=O)N1CCCCC1`, the melting point was in the range of 223 to 224 °C.

The molecule `COC(=O)c1ccc(-c2nnc(-c3cccc(NC(=O)Nc4ccc(C(C)C)cc4)c3)o2)cc1` registered a melting point of over 270 °C.

The molecule `O=c1ccc(-c2c(-c3ccccc3)nn3ccccc23)nn1[C@H]1CCNC1` registered a melting point of 144 to 146 °C.

In turn, `O=C1O[C@@H](CO)CN1c1ccc(N2C[C@@H]3C[C@H]2CS3)c(F)c1` registered a melting point of 156 to 157 °C.

Take `O=c1cc(S)sc2ccoc12`: the melting point was over 245 °C.

`Cc1nc(-c2cccnc2)c(C)[nH]1` showed a melting point of 179 to 181 °C.

In the case of `NC(=O)CC(C(N)=O)n1cccc1` (stereo not drawn), the melting point fell in the range of 158 to 165 °C.

Turning to `COc1ccc(CCCN(Cc2ccccc2)C[C@@H](O)c2ccc(OCc3ccccc3)c(OCc3ccccc3)c2)cc1`, the melting point lay within 59 to 62 °C.

With `CCn1c(=Nc2ccccc2)sc2ncccc2c1=O`, the melting point fell in the range of 117 to 118 °C.

`CCCCCCN(Cc1ccc2ccccc2c1)c1c(N[C@@H](Cc2ccccc2)C(=O)O)c(=O)c1=O` returned a melting point of 62 to 70 °C.

`OC(c1ccccc1)(c1ccccc1)c1ccncc1` registered a melting point of 238 to 240 °C.

For `COC(=O)c1c(OC)cc(CC(C#N)=CNc2ccccc2)cc1OC`, the melting point was in the range of 193 to 194 °C.

For the molecule `Cc1cc(C)c(CON)c(C)c1`, the melting point is 54 to 55 °C.

Molecule `CN(C)CCCNC(=O)[C@@H](Cc1ccc(-c2ccccc2)cc1)NC(=O)CC(C)(C)CC(=O)O` returned a melting point of 84 to 92 °C.

As to `O=c1c(Br)c(Br)cnn1-c1cccc(C(F)(F)F)c1`, the melting point lay in the range of 158 to 175 °C.

For `CC(=O)Nc1nc(-c2ccc(O)cc2O)cs1`, the melting point worked out at 264 °C.

Molecule `CCOC(=O)CNc1ncccc1NC(=O)c1cccc(Cl)c1` returned a melting point of 143 to 144 °C.

The molecule `O=C(NCc1ccccc1N1CCOCC1)c1ccn2nc(-c3ccccc3)cc2n1` had a melting point of 190 to 192 °C.

`CC(C)(C)OC1CCC(C(=O)O)CC1` (stereo not drawn) came in with a melting point of 100 to 105 °C.

Molecule `CN(C)C1(c2ccccc2)CCC(=CC(=O)NCCCc2ccccc2)CC1` (stereo not drawn) registered a melting point of 140 to 142 °C.

As for `COC(=O)C(C)(C)OCC#Cc1cc(C(F)(F)F)ccc1NS(=O)(=O)c1ccc2c(c1)CCN2C(C)=O`, the melting point lay within 134 to 136 °C.

On to `Nc1cc(C(=O)O)cc(OCc2ccccc2)c1C(=O)c1ccccc1`, for which the melting point was in the range of 216 to 218 °C.

`OC(c1cc(F)ccc1F)c1cc(Cl)ncc1Cl` (stereo not drawn) yielded a melting point of 160 to 161 °C.

In the case of `O=C(CCCCCNC(=O)OCc1ccccc1)NCCCCCO`, the melting point lay in the range of 92.5 to 94 °C.
